# According to patent US10189835B2, “Derivatives and methods of treating hepatitis B infections” (Novira Therapeutics, Inc., priority 2014, dated 2019):
# System: HBV replication in HepG2.2.15 cells
# Experiment: HBV replication inhibition assay (BDNA assay)
# Assay type: cell-based
# Conditions: 6 days of treatment, encapsidated HBV DNA in supernatant by branched DNA QuantiGene assay
# From the text: HBV replication inhibition by the compounds of this invention could be determined in cells infected or transfected with HBV, or cells with stably integrated HBV, such as HepG2.2.15 cells (Sells et al. 1987). In this example, HepG2.2.15 cells were maintained in cell culture medium containing 10% fetal bovine serum (FBS), Geneticin, L-glutamine, penicillin and streptomycin. HepG2.2.15 cells could be seeded in 96-well plates at a density of 40,000 cells/well and be treated with serially diluted compounds at a final DMSO concentration of 0.5% either alone or in combination by adding drugs in a checker box format. Cells were incubated with compounds for three days, after which medium was removed and fresh medium containing compounds was added to cells and incubated for another three days. At day 6, supernatant was removed and treated with DNase at 37° C. for 60 minutes, followed by enzyme inactivation at 75° C. for 15 minutes. Encapsidated HBV DNA was released from the virions and covalently linked HBV polymerase by incubating in lysis buffer (Affymetrix QS0010) containing […] proteinase K at 50° C. for 40 minutes. HBV DNA was denatured by addition of 0.2 M NaOH and detected using a branched DNA (BDNA) QuantiGene assay kit according to manufacturer recommendation (Affymetrix). HBV DNA levels could also be quantified using qPCR, based on amplification of encapsidated HBV DNA extraction with QuickExtraction Solution (Epicentre Biotechnologies) and amplification of HBV DNA using HBV specific PCR probes that can hybridize to HBV DNA and a fluorescently labeled probe for quantitation. In addition, cell viability of HepG2.2.15 cells incubated with test compounds alone or in combination was determined by using CellTitre-Glo reagent according to the manufacturer protocol (Promega). The mean background signal from wells containing only culture medium was subtracted from all other samples, and percent inhibition at each compound concentration was calculated by normalizing to signals from HepG2.2.15 cells treated with 0.5% DMSO using equation E1. % inhibition=(DMSOave−Xi)/DMSOave×100% E1: […]
# where DMSOave is the mean signal calculated from the wells that were treated with DMSO control (0% inhibition control) and Xi is the signal measured from the individual wells. EC50 values, effective concentrations that achieved 50% inhibitory effect, were determined by non-linear fitting using Graphpad Prism software (San Diego, Calif.) and equation E2 Y=Ymin+(Ymax−Ymin)/(1+10(LogEC50-X)×HillSlope) E2: […]
# where Y represents percent inhibition values and X represents the logarithm of compound concentrations.
# Selected compounds of the invention were assayed in the HBV replication assay (BDNA assay), as described above and a representative group of these active compounds is shown in Table 3. […] In Table 3, “A” represents 0.01<EC50<0.10; “B” represents 0.10<EC50<0.50; and “C” represents 0.50<EC50<1.0.
# [1] = Hepatitis B virus, HepG2.2.15, 144 h
Structure (SMILES),EC50 [1] [nM],further results
"CON(C)C(=O)c1n[nH]c2c1CN(C(=O)Nc1cccc(Cl)c1)CC2 [Compound 434, N5-(3-chlorophenyl)-N3-methoxy-N3-methyl-1,4,6,7-tetrahydropyrazolo [4,3-c]pyridine-3,5-dicarboxamide]",10 to 100,–
CCCC(=O)c1n[nH]c2c1CN(C(=O)Nc1cccc(Cl)c1)CC2 [Compound 561],10 to 100,–
"CN(O)C(=O)c1n[nH]c2c1CN(C(=O)Nc1cccc(Cl)c1)CC2 [Compound 587, N5-(3-chlorophenyl)-N3-hydroxy-N3-methyl-6,7-dihydro-1H-pyrazolo[4,3-c]pyridine-3,5(4H)-dicarboxamide]",500 to 1000,–
"CCN(OC)C(=O)c1n[nH]c2c1CN(C(=O)Nc1cccc(Cl)c1)CC2 [Compound 594, N5-(3-chlorophenyl)-N3-ethyl-N3-methoxy-1,4,6,7-tetrahydropyrazolo [4,3-c]pyridine-3,5-dicarboxamide]",10 to 100,–
"CON(C(=O)c1n[nH]c2c1CN(C(=O)Nc1cccc(Cl)c1)CC2)C(C)C [Compound 595, N5-(3-chlorophenyl)-N3-isopropyl-N3-methoxy-1,4,6,7-tetrahydropyrazolo [4,3-c]pyridine-3,5-dicarboxamide]",100 to 500,–
CCON(C)C(=O)c1n[nH]c2c1CN(C(=O)Nc1cccc(Cl)c1)CC2 [Compound 599],10 to 100,–
"CC(C)ON(C)C(=O)c1n[nH]c2c1CN(C(=O)Nc1cccc(Cl)c1)CC2 [Compound 600, N5-(3-chlorophenyl)-N3-isopropoxy-N3-methyl-1,4,6,7-tetrahydropyrazolo[4,3-c]pyridine-3,5-dicarboxamide]",10 to 100,–
"CCC(=O)c1n[nH]c2c1CN(C(=O)Nc1cccc(Cl)c1)CC2 [Compound 695, N-(3-chlorophenyl)-3-propanoyl-1,4,6,7-tetrahydropyrazolo [4,3-c]pyridine-5-carboxamide]",100 to 500,–
"O=C(Nc1cccc(Cl)c1)N1CCc2[nH]nc(C(=O)N3CC(O)CO3)c2C1 (stereo not shown) [Compound 697, N-(3-chlorophenyl)-3-(4-hydroxyisoxazolidine-2-carbonyl)-1,4,6,7-tetrahydropyrazolo [4,3-c]pyridine-5-carboxamide]",500 to 1000,–
"O=C(Nc1cccc(Cl)c1)N1CCc2[nH]nc(C(=O)N3CC(F)CO3)c2C1 (stereo not shown) [Compound 698, N-(3-chlorophenyl)-3-(4-fluoroisoxazolidine-2-carbonyl)-1,4,6,7-tetrahydropyrazolo[4,3-c]pyridine-5-carboxamide]",10 to 100,–
"O=C(Nc1cccc(Cl)c1)N1CCc2[nH]nc(C(=O)N3CCCO3)c2C1 [Compound 699, N-(3-chlorophenyl)-3-(isoxazolidine-2-carbonyl)-1,4,6,7-tetrahydropyrazolo[4,3-c]pyridine-5-carboxamide]",100 to 500,–
CCCON(C)C(=O)c1n[nH]c2c1CN(C(=O)Nc1cccc(Cl)c1)CC2 [Compound 795],100 to 500,–
CN(OCCO)C(=O)c1n[nH]c2c1CN(C(=O)Nc1cccc(Cl)c1)CC2 [Compound 796],100 to 500,–
CC(C)CON(C)C(=O)c1n[nH]c2c1CN(C(=O)Nc1cccc(Cl)c1)CC2 [Compound 798],100 to 500,–
COCCON(C)C(=O)c1n[nH]c2c1CN(C(=O)Nc1cccc(Cl)c1)CC2 [Compound 800],100 to 500,–
CN(OCC1CC1)C(=O)c1n[nH]c2c1CN(C(=O)Nc1cccc(Cl)c1)CC2 [Compound 803],100 to 500,–
CN(OC1CCC1)C(=O)c1n[nH]c2c1CN(C(=O)Nc1cccc(Cl)c1)CC2 [Compound 805],10 to 100,–
"CON(C)C(=O)c1n[nH]c2c1CN(C(=O)Nc1cccc(Cl)c1)C(C)C2 (stereo not shown) [Compound 828 E1, N5-(3-chlorophenyl)-N3-methoxy-N3,6-dimethyl-1,4,6,7-tetrahydropyrazolo [4,3-c]pyridine-3,5-dicarboxamide]",–,EC50 (listed as 828 E1): 10 to 100 nM
"CON(C)C(=O)c1n[nH]c2c1CN(C(=O)Nc1cccc(Cl)c1)C(C)C2 (stereo not shown) [Compound 828 E2, N5-(3-chlorophenyl)-N3-methoxy-N3,6-dimethyl-1,4,6,7-tetrahydropyrazolo [4,3-c]pyridine-3,5-dicarboxamide]",–,EC50 (listed as 828 E2): 100 to 500 nM
"CN(OC1CCOC1)C(=O)c1n[nH]c2c1CN(C(=O)Nc1cccc(Cl)c1)CC2 (stereo not shown) [Compound 910, N5-(3-chlorophenyl)-N3-methyl-N3-tetrahydrofuran-3-yloxy-1,4,6,7-tetrahydropyrazolo[4,3-c]pyridine-3,5-dicarboxamide]",100 to 500,–
"CN1CC(ON(C)C(=O)c2n[nH]c3c2CN(C(=O)Nc2cccc(Cl)c2)CC3)C1 [Compound 912, N5-(3-chlorophenyl)-N3-methyl-N3-(1-methylazetidin-3-yl)oxy-1,4,6,7-tetrahydropyrazolo[4,3-c]pyridine-3,5-dicarboxamide]",100 to 500,–
CN(C)N(C)C(=O)c1n[nH]c2c1CN(C(=O)Nc1cccc(Cl)c1)CC2 [Compound 937],10 to 100,–
